We go through 1 substance from patent US8389680B2, “Treatment of Aspergillus infections with alpha thymosin peptides” (SciClone Pharmaceuticals, Inc., priority 2003, dated 2013).

The test system of experiment [1] is lymphocytes and neutrophils. Put plainly: Myeloid and Th1 cell recovery in BMT mice with IA. In kind it is in vivo. The source says:
The treatments were as follows; in BMT-mice, TA1, at different doses administered intraperitoneally, sthymosin alpha 1, 400 microgram/kg administered intraperitoneally or human recombinant G-CSF 250 microgram/kg administered intravenously, were given daily beginning the day of the BM infusion, in concomitance with the infection and continuing for an additional 3 days. Amphotericin B was given daily for 3 days in concomitance with the infection, at a dose of 4000 microgram/kg, administered intraperitoneally. This dose would cure IA in cyclophosphamide-treated mice. Cyclophosphamide, 150 mg/kg administered intraperitoneally, was given a day before the infection. In cyclophosphamide-treated mice, 400 microgram/kg TA1 was given intraperitoneally for 5 consecutive days beginning the day of the infection. Cell surface phenotype was assessed by reacting samples with FITC- or PE-conjugated rat anti-mouse antibodies. Unrelated hisotype matched antibodies were used as control. The levels of TNF-alpha, IL-10, IL-12 p70, IFN-alpha and IL-8 in culture supernatants were determined by Kit ELISAs. The detection limits (pg/ml) of the assays were <3 (human) and <32 (murine) for TNF-alpha, <12 (murine) and <5 (human) for IL-10, <16 (murine) and <3 (human) for IL-12 p70 and <25 (human) IL-8. For human IFN-alpha <3 ng/ml. For enumeration of cytokine-producing cells, an ELISPOT assay was used on purified CD4^+ T cells and DCs from lungs. Proliferation of lung CD4^+ T lymphocytes stimulated with 10 microgram/ml Con A or heat inactivated conidia in the presence of lung DCs, was assessed by labeling with CFSE 5(6)-carboxyfluorescein diacetate succinimidyl ester.

The next experiment concerns murine DCs. The experiment can be described thus: RT-PCR of TLR expression on DCs. It is filed as cell-based. The procedure: Synthesis and PCR of cDNA were performed with forward and reverse PCR primers and the cycles used for murine and human TLRs and HPRT. The synthesized PCR products were separated by electrophoresis on 2% agarose gel and visualized by ethidium bromide staining.

In the next experiment the test system is p38 and NF-kB. The experiment can be described thus: Analysis of p38 and NF-kB activation on lung DCs. In kind it is cell-based, murine. The settings on record: peptide alone, 20 minutes. The procedure:
P38 and NF-kB were activated on lung DCs by exposure for 20 minutes at 37° C. to Aspergillus conidia and/or 100 ng/ml TA1. Blots of cell lysates were incubated with rabbit polyclonal Abs recognizing either the unphosphorylated form of p38 MAPK, or the double-phosphorylated (Thr-180/Tyr-182) p38 MAPK, or Abs specific for the Rel A, 65 kDa DNA binding subunit of human NF-kB followed by horseradish peroxidase-conjugated goat anti-rabbit IgG, as per manufacturer's instructions. Blots were developed with an Enhanced Chemiluminescence detection kit. Bands were visualized after exposure of the blots to a Kodak RX film. To ensure similar protein loading in each lane, the phospho blots were stripped and the membranes were reprobed with Abs against p38 and NF-kB.

For another experiment, the target named is T1, human TLR9 (Homo sapiens, UniProt Q9NR96).
T1 construct: expressed in transfected cells; host or cells: HEK293
T1 sequence (Q9NR96 26-1032): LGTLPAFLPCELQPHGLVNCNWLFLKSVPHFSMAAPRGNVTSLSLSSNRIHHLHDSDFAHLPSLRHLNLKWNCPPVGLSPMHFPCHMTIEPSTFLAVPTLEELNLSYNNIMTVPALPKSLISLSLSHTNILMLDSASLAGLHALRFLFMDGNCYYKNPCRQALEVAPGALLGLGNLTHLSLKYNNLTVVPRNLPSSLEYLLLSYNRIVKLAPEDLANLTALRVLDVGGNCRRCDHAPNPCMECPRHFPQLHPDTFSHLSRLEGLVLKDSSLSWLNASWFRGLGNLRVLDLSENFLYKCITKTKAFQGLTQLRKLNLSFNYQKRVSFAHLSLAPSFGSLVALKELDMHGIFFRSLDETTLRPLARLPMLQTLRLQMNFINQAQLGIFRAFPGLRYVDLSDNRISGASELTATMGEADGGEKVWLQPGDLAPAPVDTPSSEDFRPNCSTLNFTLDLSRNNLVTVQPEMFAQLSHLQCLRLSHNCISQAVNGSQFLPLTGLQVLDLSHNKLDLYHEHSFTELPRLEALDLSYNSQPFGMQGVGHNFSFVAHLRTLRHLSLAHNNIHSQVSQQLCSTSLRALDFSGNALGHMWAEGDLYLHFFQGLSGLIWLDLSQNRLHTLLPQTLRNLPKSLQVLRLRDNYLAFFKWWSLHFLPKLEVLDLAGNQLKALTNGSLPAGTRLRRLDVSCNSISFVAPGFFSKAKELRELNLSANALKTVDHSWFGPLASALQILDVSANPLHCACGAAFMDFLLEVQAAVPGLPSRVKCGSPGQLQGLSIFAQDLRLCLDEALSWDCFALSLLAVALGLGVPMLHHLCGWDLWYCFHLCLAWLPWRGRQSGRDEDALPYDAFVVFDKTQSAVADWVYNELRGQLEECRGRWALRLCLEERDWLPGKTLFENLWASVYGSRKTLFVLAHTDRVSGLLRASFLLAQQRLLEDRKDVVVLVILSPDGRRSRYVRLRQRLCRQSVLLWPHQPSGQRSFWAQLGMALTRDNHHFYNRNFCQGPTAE
Put plainly: IL-8 production by TLR9-transfected HEK293 cells. It is filed as cell-based. As for the experimental part: The human embryonic kidney cell line HEK293, wild type or stably transfected with human TLR2, TLR9 and TLR4/CD1427 were cultured in low glucose Dulbecco's modified Eagle's medium supplemented with 10% FCS, HEPES ([…]), L-glutamine ([…]), and gentamycin (50 microgram/ml). Transfectants were additionally supplemented with puromycin (100 microgram/ml). For stimulation experiments, cells were cultured at a density of 3 to 5×10^5 cells/wells in 12-well tissue culture plates overnight. Cells were washed and stimulated with 100 ng/ml TA1 either alone or together with TLR ligands for 5 h before the assessment of IL-8 production in the supernatants.
The levels of TNF-alpha, IL-10, IL-12 p70, IFN-alpha and IL-8 in culture supernatants were determined by Kit ELISAs. The detection limits (pg/ml) of the assays were <3 (human) and <32 (murine) for TNF-alpha, <12 (murine) and <5 (human) for IL-10, <16 (murine) and <3 (human) for IL-12 p70 and <25 (human) IL-8. For human IFN-alpha <3 ng/ml. For enumeration of cytokine-producing cells, an ELISPOT assay was used on purified CD4^+ T cells and DCs from lungs.

Setting [2] is: BMT mice, cytofluorimetric analysis.
Setting [3] is: combined exposure to conidia and peptide.

“Also recorded” adds a separate entry of the source.

“Ac-Ser-Asp-Ala-Ala-Val-Asp-Thr-Ser-Ser-Glu-Ile-Thr-Thr-Lys-Asp-Leu-Lys-Glu-Lys-Lys-Glu-Val-Glu-Glu-Ala-Glu-Asn-O (Ac-SDAAVDTSSEITTKDLKEKKEVEEAEN-OH) [TA1, naturally occurring thymic peptide]”: in experiment [1] (BMT mice treated with TA1), the “frequency of Th1 cells (producing IFN-gamma)” value is listed as “increased; also recorded: higher”; the “frequency of Th2 cells (producing IL-4)” value is “decreased; also recorded: lower”; the “function of lung CD4+ T lymphocytes (antigen-specific proliferation and IFN-gamma production)” value is listed as “functionally active”. Further, in experiment [1] (setting [2]), the “number of lung CD4+ cells” value is “increase; also recorded: significantly increased”, the “number of lung CD8+ cells” value is listed as “increase; also recorded: significantly increased” and the “number of lung neutrophils” value was “significantly increased”. In experiment [1] (BMT mouse model, TA1 treatment after Aspergillus infection), the total neutrophils entry is “increase”. Further, in experiment [1] (after TA1 treatment), the “absolute number of circulating lymphocytes” value is “significantly increases” and the “absolute number of circulating neutrophils” value is recorded as “significantly increases”. Besides, the “expression of TLR5” value in the experiment with murine DCs (combined exposure to conidia and TA1) is “inhibited”. Moreover, in the experiment with murine DCs (setting [3]), the “expression of TLR2” value is given as “still activated” and the “expression of TLR9” value is “still activated”. Also, in the experiment with murine DCs (peptide alone), the “expression of TLR2” value is on record as “strongly activates”, the “expression of TLR5” value is on record as “strongly activates” and the “expression of TLR9” value was “strongly activates”. The p38 phosphorylation entry with p38 and NF-kB was “induced”. In the experiment with human TLR9 (TA1 alone, 100 ng/ml, 5 h), the “production of IL-8” value is “directly activate; also recorded: significantly increased”. Besides, in the experiment with human TLR9 (in response to the TLR9 ligand CpG), the “production of IL-8” value is “significantly increased”.
